# Laboratory results taken from ChEMBL document CHEMBL1799952, “Synthesis of novel heme-interacting acridone derivatives to prevent free heme-mediated protein oxidation and degradation” (Bioorg Med Chem Lett, 2011).
# Activity calls are given as the source filed them. The rule behind the calls is not given here.
# Test system: Heme
# Test: Inhibition of heme-mediated bovine serum albumin oxidation assessed as protein carbonyl formation after 1 hr in presence of H2O2 at pH 7.4
row,IC50,Compound
1,41 µM,O=c1c2ccccc2[nH]c2cc([N+](=O)[O-])ccc12
2,36 µM,O=c1c2ccccc2[nH]c2cc(Cl)ccc12
3,43 µM,O=C(O)c1cccc2c(=O)c3ccccc3[nH]c12
4,44 µM,COc1ccc2[nH]c3ccccc3c(=O)c2c1
5,42 µM,COc1cc2c(c(O)c1OC)c(=O)c1ccccc1n2C [ARBORININE]

row,Compound,IC50
1,O=c1c2ccccc2[nH]c2ccccc12 [ACRIDONE],55 µM

# Test system: Heme
# Test: Inhibition of heme-mediated bovine serum albumin degradation at 100 uM after 1 hr by gel electrophoresis in presence of H2O2 at pH 7.4
row,inhibition,Compound
1,Active,O=c1c2ccccc2[nH]c2cc([N+](=O)[O-])ccc12
2,Active,O=c1c2ccccc2[nH]c2cc(Cl)ccc12
3,Active,COc1cc2c(c(O)c1OC)c(=O)c1ccccc1n2C [ARBORININE]

# Test system: Heme
# Test: Binding affinity to heme assessed as equilibrium binding constant by UV-visible spectrophotometry
row,Ka,Compound
1,4.3 ×10⁴ /M,O=c1c2ccccc2[nH]c2cc([N+](=O)[O-])ccc12
2,4.6 ×10⁴ /M,O=c1c2ccccc2[nH]c2cc(Cl)ccc12
3,3.8 ×10⁴ /M,O=C(O)c1cccc2c(=O)c3ccccc3[nH]c12
4,2.7 ×10⁴ /M,COc1ccc2[nH]c3ccccc3c(=O)c2c1
5,3.9 ×10⁴ /M,COc1cc2c(c(O)c1OC)c(=O)c1ccccc1n2C [ARBORININE]

row,Compound,Ka
1,O=c1c2ccccc2[nH]c2ccccc12 [ACRIDONE],2.4 ×10⁴ /M
